Source: patent US20260092061A1, “COMPOUNDS FOR TARGETED PROTEIN DEGRADATION” (Amphista Therapeutics Limited, priority 2022, published 2026)

Target: T1, BRD9 (Homo sapiens, UniProt Q9H8M2)
T1 sequence (Q9H8M2 1-597): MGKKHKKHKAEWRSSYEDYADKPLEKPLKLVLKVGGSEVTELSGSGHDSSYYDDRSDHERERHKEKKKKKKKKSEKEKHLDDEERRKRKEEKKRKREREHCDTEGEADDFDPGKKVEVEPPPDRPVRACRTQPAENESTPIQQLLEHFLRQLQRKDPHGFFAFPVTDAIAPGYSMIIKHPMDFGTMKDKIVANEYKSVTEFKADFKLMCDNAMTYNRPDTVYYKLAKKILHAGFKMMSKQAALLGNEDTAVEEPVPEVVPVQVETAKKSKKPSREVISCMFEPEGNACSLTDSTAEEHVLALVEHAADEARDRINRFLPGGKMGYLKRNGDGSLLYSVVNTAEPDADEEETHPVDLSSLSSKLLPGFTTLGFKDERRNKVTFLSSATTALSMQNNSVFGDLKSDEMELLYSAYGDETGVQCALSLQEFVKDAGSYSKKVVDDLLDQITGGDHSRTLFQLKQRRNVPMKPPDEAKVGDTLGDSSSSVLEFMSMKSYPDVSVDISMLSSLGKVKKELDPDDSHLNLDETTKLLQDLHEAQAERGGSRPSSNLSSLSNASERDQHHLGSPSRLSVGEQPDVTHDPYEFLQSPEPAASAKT
Test: Degradation of BRD9 (IF), immunofluorescence in MV4-11 cells, 24 hours (Assay Protocol 2)
Type: cell-based
Parameters: A suspension of MV4-11 cells (ATCC CRL-9591) was prepared; host or cells: MV4-11
Settings: BRD9 degradation; for DC50: Assay protocol 2, read-out: DC50; for Dmax: MV4-11, Assay protocol 2, read-out: Dmax
Method in brief: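 % BRD9 remaining, scaled between DMSO (high) and 100 nM CFT-8634 (low) control wells, derives from mean Alexa 647 contrast in central nuclei by high-content imaging. MV4-11 cells had 24 h compound exposure at 37° C. before PFA fixation, Triton permeabilisation and anti-BRD9 E4Q3F immunostaining.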

COc1cc(-c2cn(C)c(=O)c(C)c2C)cc(OC)c1CN1CCN(Cc2cccc3c2CCN(C(=O)/C(C#N)=C/C(C)(C)C)[C@@H]3C(C)C)C2(CC2)C1 (single isomer, unassigned) [Compound C79, (E/Z)-2-(5-((7-(2,6-dimethoxy-4-(1,4,5-trimethyl-6-oxo-1,6-dihydropyridin-3-yl)benzyl)-4,7-diazaspiro[2.5]octan-4-yl)methyl)-1-isopropyl-1,2,3,4-tetrahydroisoquinoline-2-carbonyl)-4,4-dimethylpent-2-enenitrile]
DC50: 25 to 1000 nM
Dmax: 40 to 70%

COc1cc(-c2cn(C)c(=O)c(C)c2C)cc(OC)c1CN1CCN(Cc2cccc3c2CCN(C(=O)/C(C#N)=C/C(C)(C)C)[C@H]3C(C)C)CC12CC2 (single isomer, unassigned) [Compound C81, (E/Z)-2-(5-((4-(2,6-dimethoxy-4-(1,4,5-trimethyl-6-oxo-1,6-dihydropyridin-3-yl)benzyl)-4,7-diazaspiro[2.5]octan-7-yl)methyl)-1-isopropyl-1,2,3,4-tetrahydroisoquinoline-2-carbonyl)-4,4-dimethylpent-2-enenitrile]
DC50: 1.25 to 10 nM
Dmax: > 75%

COc1cc(-c2cn(C)c(=O)c(C)c2C)cc(OC)c1CN1CCN(Cc2cccc3c2CCN(C(=O)/C(C#N)=C/C(C)(C)C)[C@@H]3C(C)C)CC12CC2 (single isomer, unassigned) [Compound C82, (E/Z)-2-(5-((4-(2,6-dimethoxy-4-(1,4,5-trimethyl-6-oxo-1,6-dihydropyridin-3-yl)benzyl)-4,7-diazaspiro[2.5]octan-7-yl)methyl)-1-isopropyl-1,2,3,4-tetrahydroisoquinoline-2-carbonyl)-4,4-dimethylpent-2-enenitrile]
DC50: 25 to 1000 nM
Dmax: 40 to 70%

COc1cc(-c2cn(C)c(=O)c(C)c2C)ccc1OC1CCC(Cc2cccc3c2CCN(C(=O)C(C#N)=CC(C)(C)N2CCN(C4COC4)CC2)C3C(C)C)CC1 (single isomer, unassigned) [Compound C86]
DC50: 25 to 1000 nM
Dmax: > 75%

COc1cc(-c2cn(C)c(=O)c(C)c2C)cc(OC)c1CN1CCN(Cc2ccc3c(c2)[C@H](C(C)C)N(C(=O)/C(C#N)=C/C(C)(C)C)CC3)C2(CC2)C1 (single isomer, unassigned) [Compound C87, (E/Z)-2-(7-((7-(2,6-dimethoxy-4-(1,4,5-trimethyl-6-oxo-1,6-dihydropyridin-3-yl)benzyl)-4,7-diazaspiro[2.5]octan-4-yl)methyl)-1-isopropyl-1,2,3,4-tetrahydroisoquinoline-2-carbonyl)-4,4-dimethylpent-2-enenitrile]
DC50: 10 to 25 nM
Dmax: 70 to 75%

COc1cc(-c2cn(C)c(=O)c(C)c2C)cc(OC)c1CN1CCN(Cc2ccc3c(c2)[C@@H](C(C)C)N(C(=O)/C(C#N)=C/C(C)(C)C)CC3)C2(CC2)C1 (single isomer, unassigned) [Compound C88, (E/Z)-2-(7-((7-(2,6-dimethoxy-4-(1,4,5-trimethyl-6-oxo-1,6-dihydropyridin-3-yl)benzyl)-4,7-diazaspiro[2.5]octan-4-yl)methyl)-1-isopropyl-1,2,3,4-tetrahydroisoquinoline-2-carbonyl)-4,4-dimethylpent-2-enenitrile]
DC50: 25 to 1000 nM
Dmax: 40 to 70%

COc1cc(-c2cn(C)c(=O)c(C)c2C)cc(OC)c1CN(C)Cc1ccc2c(c1)[C@@H](C(C)C)N(C(=O)/C(C#N)=C/C(C)(C)C)CC2 (single isomer, unassigned) [Compound C89]
DC50: 10 to 25 nM
Dmax: 40 to 70%

CC[C@H]1c2cccc(CN3CCN(Cc4c(OC)cc(-c5cn(C)c(=O)c(C)c5C)cc4OC)C4(CC4)C3)c2CCN1C(=O)/C(C#N)=C/C(C)(C)C (single isomer, unassigned) [Compound C90, (E/Z)-2-(5-((4-(2,6-dimethoxy-4-(1,4,5-trimethyl-6-oxo-1,6-dihydropyridin-3-yl)benzyl)-4,7-diazaspiro[2.5]octan-7-yl)methyl)-1-ethyl-1,2,3,4-tetrahydroisoquinoline-2-carbonyl)-4,4-dimethylpent-2-enenitrile]
DC50: > 1000 nM
Dmax: 40 to 70%
